Patent US11008332B2, “Pharmaceutical composition for preventing or treating aging-related diseases containing decursin derivative as active ingredient” (PRG S&TECH INC., priority 2017, dated 2021)
Several values for one entry are separate records, joined by “and”; a condition that tells them apart may be missing. Identical values can stand only once.

How the values were obtained:
HGPS cells [1] = assay: Immunofluorescence staining of HGPS cells (nuclear morphology, progerin, H3K9me3); format: cell-based, Human
Experimental: Human fibroblast cells from HGPS patients (AG03198, person; AG03199; person), WS patients (AG06300, person; AG03141, person; AG00780, person) and controls (GM 00038, person) were obtained from the Coriell Cell Repositories (Camden, N.J., USA) and were maintained in EMEM, containing 15% FBS, 2 mM glutamine or HEMEM with 26 mM HEPES without antibiotics.
Cells were seeded on a cover glass and transfected with the indicated vectors.
After fixing with 100% methanol or 1% paraformaldehyde (PFA) for 1 h at 4° C., cells were incubated with blocking buffer (PBS+anti-human-Ab; 1:400) for 1 h.
After washing with PBS twice, cells were incubated with anti-Lamin A/C, Progerin or H3K9Me3 in blocking buffer (1:200) overnight and sequentially with anti-goat Ab-FITC or anti-rabbit Ab-rhodamin in blocking buffer (1:500) for 7 h and mounted, and nucleus was stained with DAPI. Thereafter Immunofluorescence signal was detected by fluorescence microscopy (Zeiss and Logos).
For counting nuclear deformed cell, obtained immunofluorescence images were used. Nuclear membrane showing abnormalities, dependent on Lamin A staining, were counted from randomly selected field. Counted cells were calculated percentage.

progerin = target: T1, progerin (Homo sapiens, UniProt P02545); assay: GST pull-down of bead-conjugated GST WRN-R1/WRN-R2 with GFP-progerin transfected 293 cell lysates; format: binding; details: compared with WRN-R1, FIG. 4B
T1 construct: expressed in transfected cells; host or cells: HEK293
T1 sequence (P02545 1-614 isoform P02545-6): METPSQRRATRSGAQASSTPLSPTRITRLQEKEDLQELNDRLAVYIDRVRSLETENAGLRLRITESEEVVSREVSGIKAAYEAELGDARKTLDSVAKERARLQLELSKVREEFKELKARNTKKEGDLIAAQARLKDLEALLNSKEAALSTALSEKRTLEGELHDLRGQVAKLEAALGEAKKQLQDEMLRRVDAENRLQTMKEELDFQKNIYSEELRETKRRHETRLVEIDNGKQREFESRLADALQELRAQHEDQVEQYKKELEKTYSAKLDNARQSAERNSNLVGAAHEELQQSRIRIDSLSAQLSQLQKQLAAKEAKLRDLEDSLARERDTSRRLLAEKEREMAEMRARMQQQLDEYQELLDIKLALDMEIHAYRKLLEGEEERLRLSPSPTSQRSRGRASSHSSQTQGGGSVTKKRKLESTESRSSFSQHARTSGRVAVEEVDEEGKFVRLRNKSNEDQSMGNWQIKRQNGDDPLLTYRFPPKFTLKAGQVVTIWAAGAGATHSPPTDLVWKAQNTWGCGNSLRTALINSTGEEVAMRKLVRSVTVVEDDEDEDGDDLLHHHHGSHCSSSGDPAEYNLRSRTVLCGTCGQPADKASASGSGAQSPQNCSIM
Experimental: For the analysis of protein-protein interaction, Glutathione S-transferase (GST) pull-down assay was performed.
To detect the interaction, GST-bead-fused Lamin A-C-terminal region, Progerin-C-terminal region, WRN-R1 region or WRN-R2 region was incubated with GFP tagged Progerin (GFP-Progerin) and Lamin A (GFP-Lamin A) transfected HEK293 cell lysate for 30 min at RT.
After washing once with PBS, precipitated materials were collected and subjected into SDS-PAGE and western blot with anti-GFP and GST.

[2] = target: T2, progerin and Lamin A binding (Homo sapiens, UniProt P02545); assay: Competition assay of WRN-R1 and R2 against progerin and Lamin A binding; details: bead conjugated GST-progerin with GFP-Lamin A transfected 293 lysate, FIG. 4C
T2 construct: produced by cloning of 100 AA from upstream of the termination codon through PCR; made in house; GFP-Lamin A from transfected 293 cells
T2 sequence (P02545 1-614 isoform P02545-6): T1 sequence (P02545 1-614 isoform P02545-6)
Experimental: For the competition assay of WRN-R1 and R2 against progerin and Lamin A binding, bead-conjugated GST-progerin was incubated with GFP-Lamin A overexpressed 293 lysate with or without WRN-R1 or R2 recombinant protein.

Plasma protein = Plasma protein binding, human; format: in vitro ADME
Experimental: In vitro ADME studies (plasma protein binding, CYP inhibition, microsomal stability, plasma stability and hERG inhibition) were performed by New drug development center though standard protocols.

[3] = Chemical pharmacokinetic (PK) analysis, blood/plasma concentration by LC-MS/MS; format: in vivo; details: for Plasma concentration, Mean: n = 3
Experimental: For PK analysis, 5 mg/kg of JH4 in 10% DMSO, 5% Tween […] solution was intravenously injected and 10 mg/kg of JH4 in 10% NMP and 90% PEG400 solution was per orally delivered. At the setting time-points, blood concentration of JH4 was determined by LC-MS/MS analysis and the PK analysis for other chemicals was also tested by the similar protocol.

Lmna^wt/G609G mice = assay: Life span and morphology of Lmna^wt/G609G mice; format: in vivo, mouse
Water solubility = format: physicochemical
HGPS cells [4] = details: previous report; cited from earlier work
[5] = system: Lmna^G609G/G609G, progeria model mouse; details: intraperitoneal injection (i.p.), previous report; cited from earlier work
hERG ion channel = hERG ion channel (Homo sapiens, UniProt Q12809); assay: hERG inhibition (in vitro ADME); details: in vitro ADME analysis, FIG. 2B
[6] = system: progerin expression in progerin-transfected 293 cells; assay: Progerin expression analysis in progerin-transfected 293 cells (Western blot); format: cell-based; details: 24 hours, FIG. 1D
Experimental: HEK293 cell line, obtained from ATCC, were maintained in liquid medium (DMEM) containing 10% FBS and 1% antibiotics at 37° C.
Whole-cell lysates were prepared in RIPA.
15 μg of cell extracts were separated by SDS-PAGE and transferred onto a PVDF membrane.
The membrane was incubated for 1 h to overnight at 4° C. with primary antibody, followed by reaction with a secondary antibody at room temperature for 1 h.
Peroxidase activity was detected by chemiluminescence with ECL kit (Intron, Seoul, Korea) as recommended by its manufacturer.

[7] = recombinant peptide delivered into HGPS cells with protein delivery agent, 24 hr, FIG. 4D
[8] = intravenous injection 5 mg/kg, 1 hr
[9] = intravenous injection 5 mg/kg, 2 hr
[10] = intravenous injection 5 mg/kg, 8 hr
[11] = intravenous injection 5 mg/kg, 24 hr
[12] = oral administration 10 mg/kg, 0.08 hr
[13] = oral administration 10 mg/kg, 0.25 hr
[14] = oral administration 10 mg/kg, 0.5 hr
[15] = oral administration 10 mg/kg, 1 hr
[16] = oral administration 10 mg/kg, 2 hr
[17] = oral administration 10 mg/kg, 4 hr
[18] = oral administration 10 mg/kg, 8 hr
[19] = oral administration 10 mg/kg, 24 hr
[20] = Lmna^wt/G609G mice, injection started from 43 weeks old, FIG. 2E

Chain of hERG ion channel (Q12809 whole entry): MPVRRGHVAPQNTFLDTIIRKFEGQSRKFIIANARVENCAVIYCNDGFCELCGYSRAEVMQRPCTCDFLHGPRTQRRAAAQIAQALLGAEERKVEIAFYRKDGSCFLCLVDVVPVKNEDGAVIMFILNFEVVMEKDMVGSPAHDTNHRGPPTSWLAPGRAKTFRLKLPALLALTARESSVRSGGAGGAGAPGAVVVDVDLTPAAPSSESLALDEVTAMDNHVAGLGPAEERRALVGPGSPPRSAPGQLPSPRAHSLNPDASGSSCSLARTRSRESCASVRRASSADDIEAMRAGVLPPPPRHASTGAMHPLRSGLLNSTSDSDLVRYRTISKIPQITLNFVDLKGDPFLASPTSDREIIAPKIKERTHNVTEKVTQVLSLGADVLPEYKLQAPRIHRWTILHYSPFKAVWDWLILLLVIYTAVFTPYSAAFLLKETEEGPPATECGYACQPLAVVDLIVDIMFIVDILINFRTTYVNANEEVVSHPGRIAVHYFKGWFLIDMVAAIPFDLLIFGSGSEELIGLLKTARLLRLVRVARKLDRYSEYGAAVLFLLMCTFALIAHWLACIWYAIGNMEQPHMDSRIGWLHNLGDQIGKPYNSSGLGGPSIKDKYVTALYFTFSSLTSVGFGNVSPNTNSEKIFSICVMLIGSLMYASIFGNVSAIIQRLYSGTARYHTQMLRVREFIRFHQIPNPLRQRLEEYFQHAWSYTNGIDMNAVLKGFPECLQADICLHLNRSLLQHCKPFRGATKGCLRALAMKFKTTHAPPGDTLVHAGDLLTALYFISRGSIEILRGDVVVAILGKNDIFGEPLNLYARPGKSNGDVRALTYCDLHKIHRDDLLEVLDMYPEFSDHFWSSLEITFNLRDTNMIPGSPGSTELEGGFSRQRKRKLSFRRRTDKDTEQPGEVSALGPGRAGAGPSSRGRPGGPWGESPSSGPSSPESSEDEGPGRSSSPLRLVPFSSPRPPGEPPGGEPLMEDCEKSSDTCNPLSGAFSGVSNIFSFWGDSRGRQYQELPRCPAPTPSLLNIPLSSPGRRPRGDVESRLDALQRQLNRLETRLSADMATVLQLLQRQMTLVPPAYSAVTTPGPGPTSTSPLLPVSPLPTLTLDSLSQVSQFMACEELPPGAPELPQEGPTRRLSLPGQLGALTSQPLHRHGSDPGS

With “WRN-R2: recombinant WRN-R2 region (hWRN 424-476), duplicated peptide HLSPNDNENDTSYVIESDEDELEMEMLK x2” the “H3K9me3 expression in HGPS cells” value (HGPS cells [1]; [7]) was “H3K9me3 expression was improved”, the “nuclear morphology of HGPS cells” value (HGPS cells [1]; [7]) was “nuclear morphology was normalized” and the binding to progerin (progerin) was “strongly binds to progerin”. The “blocking of interaction of progerin and Lamin A” value [2] was “blocks the interaction of progerin and Lamin A”.
For C[C@@H]1C[C@H]2[C@@H]3CCC4=CC(=O)C=C[C@]4(C)[C@@]3(F)[C@@H](O)C[C@]2(C)[C@@]1(O)C(=O)CO [Dexamethasone], the “Plasma protein binding Human (% Bound)” value (Plasma protein) was 62.1 % Bound.
With CC1(C)Oc2cc3oc(=O)ccc3cc2C[C@@H]1OC(=O)/C=C/c1cccnc1 [JH4] the “disappearance after PO treatment” value ([3]; PO treatment, FIG. 1A) was “very rapidly disappeared by PO treatment”, the “Plasma concentration, Mean” value ([3]; intravenous injection 5 mg/kg, 0.08 hr) was 4.7 ng/mL and the “Plasma concentration, individual subjects” value ([3]; intravenous injection 5 mg/kg, 0.08 hr, 5 mg/kg) was 3.3 ng/mL and 4.6 ng/mL and 6.3 ng/mL. For the same compound, the “Plasma concentration, Mean” value ([3]; intravenous injection 5 mg/kg, 0.25 hr) was 1.5 ng/mL, the “Plasma concentration, individual subjects” value ([3]; intravenous injection 5 mg/kg, 0.25 hr, 5 mg/kg) was 1.7 ng/mL and 1.1 ng/mL and 1.8 ng/mL and the “Plasma concentration, Mean” value ([3]; intravenous injection 5 mg/kg, 0.5 hr) was 0.6 ng/mL. The “Plasma concentration, individual subjects” value ([3]; intravenous injection 5 mg/kg, 0.5 hr, 5 mg/kg) was 0.5 ng/ml (2×) and 0.7 ng/ml, the “Plasma concentration, individual subjects” value [3, 8] was “BQL (Below Quantifiable Limit (<1 ng/ml))” and the “Plasma concentration, Mean” value [3, 8] was “BQL (Below Quantifiable Limit (<1 ng/ml))”. The “Plasma concentration, individual subjects” value [3, 9] was “BQL (Below Quantifiable Limit (<1 ng/ml))”, the “Plasma concentration, Mean” value [3, 9] was “BQL (Below Quantifiable Limit (<1 ng/ml))” and the “Plasma concentration, Mean” value ([3]; intravenous injection 5 mg/kg, 4 hr) was “BQL (Below Quantifiable Limit (<1 ng/ml))”. The “Plasma concentration, individual subjects” value ([3]; intravenous injection 5 mg/kg, 4 hr, 5 mg/kg) was “BQL (Below Quantifiable Limit (<1 ng/ml)) (2×) and BOL”, the “Plasma concentration, individual subjects” value [3, 10] was “BQL (Below Quantifiable Limit (<1 ng/ml))” and the “Plasma concentration, Mean” value [3, 10] was “BQL (Below Quantifiable Limit (<1 ng/ml))”. The “Plasma concentration, individual subjects” value [3, 11] was “BQL (Below Quantifiable Limit (<1 ng/ml))”, the “Plasma concentration, Mean” value [3, 11] was “BQL (Below Quantifiable Limit (<1 ng/ml))” and the half-life in vivo ([3]; intravenously injected and orally administrated) was “very short half-life”. For the same compound, the “Plasma concentration, individual subjects” value [3, 12] was “BQL (Below Quantifiable Limit (<1 ng/ml))”, the “Plasma concentration, Mean” value [3, 12] was “BQL (Below Quantifiable Limit (<1 ng/ml))” and the “Plasma concentration, individual subjects” value [3, 13] was “BQL (Below Quantifiable Limit (<1 ng/ml))”. The “Plasma concentration, Mean” value [3, 13] was “BQL (Below Quantifiable Limit (<1 ng/ml))”, the “Plasma concentration, individual subjects” value [3, 14] was “BQL (Below Quantifiable Limit (<1 ng/ml))” and the “Plasma concentration, Mean” value [3, 14] was “BQL (Below Quantifiable Limit (<1 ng/ml))”. For the same compound, the “Plasma concentration, individual subjects” value [3, 15] was “BQL (Below Quantifiable Limit (<1 ng/ml))”, the “Plasma concentration, Mean” value [3, 15] was “BQL (Below Quantifiable Limit (<1 ng/ml))” and the “Plasma concentration, individual subjects” value [3, 16] was “BQL (Below Quantifiable Limit (<1 ng/ml))”. For the same compound, the “Plasma concentration, Mean” value [3, 16] was “BQL (Below Quantifiable Limit (<1 ng/ml))”, the “Plasma concentration, individual subjects” value [3, 17] was “BQL (Below Quantifiable Limit (<1 ng/ml))” and the “Plasma concentration, Mean” value [3, 17] was “BQL (Below Quantifiable Limit (<1 ng/ml))”. For the same compound, the “Plasma concentration, individual subjects” value [3, 18] was “BQL (Below Quantifiable Limit (<1 ng/ml))”, the “Plasma concentration, Mean” value [3, 18] was “BQL (Below Quantifiable Limit (<1 ng/ml))” and the “Plasma concentration, individual subjects” value [3, 19] was “BQL (Below Quantifiable Limit (<1 ng/ml))”. The “Plasma concentration, Mean” value [3, 19] was “BQL (Below Quantifiable Limit (<1 ng/ml))”, the prolongation of life (Lmna^wt/G609G mice; Lamn^wt/G609G model) was “about 10 weeks” and the average life span (Lmna^wt/G609G mice; [20]) was 54 weeks. The “maximum (max) life span” value (Lmna^wt/G609G mice; [20]) was 56 weeks, the water solubility (Water solubility) was “very low water solubility” and the “aging-related markers in HGPS cells” value (HGPS cells [4]) was “restored aging-related markers such as p16/INK4A, DNA-PK and H3K9me3 expression”. For the same compound, the “nuclear deformation of HGPS cells” value (HGPS cells [4]) was “improved the nuclear deformation of HGPS cells” and the “prolongation of progerin model mouse lifespan” value [5] was “about 4 weeks”.
In the case of CC1(C)Oc2cc3oc(=O)ccc3cc2CC1OC(=O)N/C=C/c1cccnc1 (stereo not shown) [JH010], the “bioavailability (B.A.)” value ([3]; PK analysis, FIG. 2A) is reported as 70%, the PK profile ([3]; in vivo PK analysis, FIG. 2A) is reported as “proper PK profile” and the “hERG ion channel inhibition” value (hERG ion channel) is reported as “hERG ion channel inhibition of the JH010 compound was confirmed”. For the same compound, the progerin expression [6] was “inhibiting progerin expression”, the “nuclear abnormality of HGPS cells” value (HGPS cells [1]; HGPS cells incubated 48 hr, FIG. 1E) was “improved nuclear abnormality of HGPS cells” and the “H3K9me3 expression in HGPS cells” value (HGPS cells [1]; immunostaining, FIG. 1F) was “induced H3K9me3 expression”.
